Article PMC10907358, “Identification of oleic acid as an endogenous ligand of GPR3” (Cell Research, 2024)
Several values for one entry are separate records, joined by “and”; a condition that tells them apart may be missing. Equal values may be shown once. Entries after “also recorded” stand apart in the source; their conditions may differ. One block for each compound: values may come before it.

Tests used:
GPR3 [1] = molecular target: T1, GPR3 (Homo sapiens, UniProt P46089); assay: Inhibition of OA-induced GPR3 activation, GloSensor cAMP assay in GPR3 stably expressing AD293 cell line; assay type: cell-based; details: OA concentration fixed at 300 μM; read-out: IC50 of OA-induced receptor activation
T1 construct: expressed in transfected cells
T1 sequence (P46089 whole entry): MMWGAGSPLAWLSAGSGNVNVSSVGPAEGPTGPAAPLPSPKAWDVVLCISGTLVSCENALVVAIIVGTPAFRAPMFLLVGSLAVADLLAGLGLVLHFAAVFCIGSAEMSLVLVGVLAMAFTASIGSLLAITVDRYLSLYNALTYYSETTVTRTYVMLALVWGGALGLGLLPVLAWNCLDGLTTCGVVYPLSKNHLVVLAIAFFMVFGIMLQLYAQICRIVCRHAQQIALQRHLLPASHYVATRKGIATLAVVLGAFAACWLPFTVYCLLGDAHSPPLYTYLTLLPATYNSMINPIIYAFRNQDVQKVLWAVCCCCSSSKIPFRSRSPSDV
Experimental: (§1) The GloSensor cAMP assay was performed according to the instructions of Promega. AD293 cells were split into 6-well plate (300,000 cells/mL) and then transfected with the pGloSensor™-22F cAMP plasmid and pcDNA3-GPR3 plasmid by Lipofectamine 2000, at a ratio of 2:1 (μL:μg). 24 h after transfection, cells were split into 96-well plate for another 24 h incubation. After removal of cell medium, 90 μL of 3% v/v (the GloSensor cAMP reagent vs serum-free medium) substrate was added into each well. After 2 h incubation at RT, background measurements were taken, and then 10 μL 10× stock compounds were added for the second measurements of ligand activation via EnVision 2105 (PerkinElmer). Relative cAMP level was calculated by the cAMP level after addition of ligand divided by the cAMP level before addition of ligand (basal level). Stock FAs (i.e., 10–50 mM) were solubilized in DMSO, then diluted in cell culture buffer to designated concentrations and sonicated to ensure that they were evenly distributed in the buffer before being added to cells.
(§2) AD293 cells were split into 6-well plate (300,000 cells/mL), and then transfected with the pGloSensor™-22F cAMP plasmid and the pcDNA6-GPR3-3× FLAG plasmid (WT receptor or the mutants, F120A^3.36, W260A^6.48, L283F^7.39, A201W^5.46, Y280A^7.36, H96A^2.60 and H96A^2.60/Y280A^7.36) by Lipofectamine 2000 at a ratio of 2:1 (μL:μg). […]

GPR3 [2] = molecular target: T1, GPR3; assay: GloSensor cAMP assay in GPR3 stably expressing AD293 cell line (agonist mode); assay type: cell-based; details: for Emax compared to Emax of OA: cAMP assay
Experimental: as §1
AD293 cells were split into 6-well plate (300,000 cells/mL), and then transfected with the pGloSensor™-22F cAMP plasmid and the pcDNA6-GPR3-3× FLAG plasmid (WT receptor or the mutants, F120A^3.36, W260A^6.48, L283F^7.39, A201W^5.46, Y280A^7.36, H96A^2.60 and H96A^2.60/Y280A^7.36) by Lipofectamine 2000 at a ratio of 2:1 (μL:μg). Geneticin (2 mg/mL) and blasticidin (20 μg/mL) were used to select colonies that stably express both GPR3 and GloSensor 22F. The cell culture medium containing antibiotics was changed every 2 days till well-separated colonies appeared. Then individual single colony was picked by a small piece of sterilized filter paper soaked with trypsin and separately cultured in a single well of 24-well plate. At least 24 candidate colonies were selected for each mutant and WT. After several days of culture, each colony was triplicated. One of the triplicates was used for western blot analysis, another for the GloSensor cAMP assay, and the remaining one was stored for staining. The colonies with top scores in both expression (western blot) and functional assay were selected as the representative colonies for each mutant or WT for further analysis.

GPR6 = molecular target: T2, GPR6 (Homo sapiens, UniProt P46095); assay: GloSensor cAMP assay in GPR6 stably expressing AD293 cell line; assay type: cell-based; details: lipid concentration 300 μM
T2 construct: FLAG; expressed in transfected cells
T2 sequence (P46095 whole entry, species assumed): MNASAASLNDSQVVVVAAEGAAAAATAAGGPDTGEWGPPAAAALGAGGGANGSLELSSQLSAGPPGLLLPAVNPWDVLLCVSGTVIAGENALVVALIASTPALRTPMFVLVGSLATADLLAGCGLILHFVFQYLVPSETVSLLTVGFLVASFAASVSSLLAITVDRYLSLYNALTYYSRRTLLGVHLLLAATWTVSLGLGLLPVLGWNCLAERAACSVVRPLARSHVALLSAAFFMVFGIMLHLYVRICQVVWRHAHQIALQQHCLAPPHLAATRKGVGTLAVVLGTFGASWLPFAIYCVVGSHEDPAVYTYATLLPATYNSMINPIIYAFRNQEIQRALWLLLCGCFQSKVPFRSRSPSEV

[3] = test system: Gs/cAMP/PKA signaling in iBAT; assay: Ex vivo iBAT of WT mice, p-PKA substrate immunoblot; assay type: cell-based, mouse; details: up to 4 h
Experimental: iBAT was isolated from C57BL/6N mice at 4-6 weeks old and cut into 10 mg pieces. […] Another group of iBAT pieces were incubated in DMEM medium at 4 °C, and treated with different doses of OA (0 mM, 1 mM, 5 mM) for 4 h. OA (Sigma, O1008) was dissolved in serum-free DMEM (Gibco, high glucose, 12100046) by using an ultrasonic cleaner at 40 °C for 10 min.

GPR120 = test system: GPR120; design: method as in PMID 36862765; details: cited from earlier work
GPR3 Y280A mutant = molecular target: T3, GPR3 Y280A mutant (Homo sapiens, UniProt P46089, Y280A); assay: OA dose-response, GloSensor cAMP assay, AD293 stably expressing GPR3 Y280A mutant; assay type: cell-based; details: Table S3, Y280A
T3 construct: expressed in transfected cells
T3 sequence (P46089 whole entry Y280A): as the sequence (P46089 whole entry) above, with Y280A counted along it
Experimental: as §1, §2

GPR3 W260A mutant = molecular target: T4, GPR3 W260A mutant (Homo sapiens, UniProt P46089, W260A); assay: OA dose-response, GloSensor cAMP assay, AD293 stably expressing GPR3 W260A mutant; assay type: cell-based; details: W260A stable line
T4 construct: expressed in transfected cells
T4 sequence (P46089 whole entry W260A): as the sequence (P46089 whole entry) above, with W260A counted along it
Experimental: as §1, §2

GPR12 = molecular target: T5, GPR12 (Homo sapiens, UniProt P47775); assay: GloSensor cAMP assay in GPR12 stably expressing AD293 cell line; assay type: cell-based; details: lipid concentration 300 μM
T5 construct: FLAG; expressed in transfected cells
T5 sequence (P47775 1-334): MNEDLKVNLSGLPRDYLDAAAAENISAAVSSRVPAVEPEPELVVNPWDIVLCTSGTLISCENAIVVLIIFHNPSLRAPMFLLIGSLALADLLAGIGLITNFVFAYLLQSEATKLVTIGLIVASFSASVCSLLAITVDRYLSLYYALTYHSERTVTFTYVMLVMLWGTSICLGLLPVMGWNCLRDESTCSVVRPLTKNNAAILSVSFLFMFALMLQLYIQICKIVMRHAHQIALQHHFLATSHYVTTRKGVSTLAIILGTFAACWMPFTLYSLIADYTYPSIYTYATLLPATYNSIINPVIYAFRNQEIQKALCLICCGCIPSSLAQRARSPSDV

[4] = test system: Gs/cAMP/PKA signaling in Gpr3 KO iBAT; assay: Ex vivo iBAT of Gpr3 KO mice, p-PKA substrate immunoblot; assay type: cell-based, mouse; details: OA 1 mM, 4 h
Experimental: iBAT was isolated from C57BL/6N mice at 4–6 weeks old and cut into 10 mg pieces. 10 mg iBAT was further cut into four pieces.[67] iBAT pieces were incubated in Dulbecco’s modified eagle medium (DMEM) at 4 °C, and treated with OA (1 mM) for different times (0 h, 1 h, 2 h, and 4 h). Another group of iBAT pieces were incubated in DMEM medium at 4 °C, and treated with different doses of OA (0 mM, 1 mM, 5 mM) for 4 h. OA (Sigma, O1008) was dissolved in serum-free DMEM (Gibco, high glucose, 12100046) by using an ultrasonic cleaner at 40 °C for 10 min. p-(S/T)PKA substrate and GAPDH levels were measured by immunoblotting, and quantified by densitometry using ImageJ. iBAT was also isolated from WT and Gpr3 KO mice at 4–6 weeks old and cut into 10 mg pieces. 10 mg iBAT was further cut into four pieces. iBAT pieces were incubated in DMEM medium at 4 °C, and treated with or without OA (1 mM) for 4 h. p-(S/T)PKA substrate and GAPDH levels were measured by immunoblotting, and quantified by ImageJ.
To generate Gpr3 complete KO mice rapidly, we performed one-step complete knockout based on CRISPR/Cas9 systems, which was described previously.[68] Briefly, four adjacent single-guide RNAs (sgRNAs) (spaced 50–100 bp apart; sgRNA1: […]; sgRNA2: […]; sgRNA3: […]; sgRNA4: […]) that target key exon of Gpr3 were designed. […]

GPR3 H96A/Y280A mutant = molecular target: T6, GPR3 H96A/Y280A mutant (Homo sapiens, UniProt P46089, H96A/Y280A); assay: OA dose-response, GloSensor cAMP assay, AD293 stably expressing GPR3 H96A/Y280A mutant; assay type: cell-based; details: H96A/Y280A stable line
T6 construct: expressed in transfected cells
T6 sequence (P46089 whole entry H96A/Y280A): as the sequence (P46089 whole entry) above, with H96A, Y280A counted along it
Experimental: as §1, §2

GPR3 H96A mutant = molecular target: T7, GPR3 H96A mutant (Homo sapiens, UniProt P46089, H96A); assay: OA dose-response, GloSensor cAMP assay, AD293 stably expressing GPR3 H96A mutant; assay type: cell-based; details: Table S3, H96A
T7 construct: expressed in transfected cells
T7 sequence (P46089 whole entry H96A): as the sequence (P46089 whole entry) above, with H96A counted along it
Experimental: as §1, §2

GPR3 L283F mutant = molecular target: T8, GPR3 L283F mutant (Homo sapiens, UniProt P46089, L283F); assay: OA dose-response, GloSensor cAMP assay, AD293 stably expressing GPR3 L283F mutant; assay type: cell-based; details: Table S3, L283F
T8 construct: expressed in transfected cells
T8 sequence (P46089 whole entry L283F): as the sequence (P46089 whole entry) above, with L283F counted along it
Experimental: as §1, §2

GPR3 F120A mutant = molecular target: T9, GPR3 F120A mutant (Homo sapiens, UniProt P46089, F120A); assay: OA dose-response, GloSensor cAMP assay, AD293 stably expressing GPR3 F120A mutant; assay type: cell-based; details: Table S3, F120A
T9 construct: expressed in transfected cells
T9 sequence (P46089 whole entry F120A): as the sequence (P46089 whole entry) above, with F120A counted along it
Experimental: as §1, §2

GPR3 A201W mutant = molecular target: T10, GPR3 A201W mutant (Homo sapiens, UniProt P46089, A201W); assay: OA dose-response, GloSensor cAMP assay, AD293 stably expressing GPR3 A201W mutant; assay type: cell-based; details: Table S3, A201W
T10 construct: expressed in transfected cells
T10 sequence (P46089 whole entry A201W): as the sequence (P46089 whole entry) above, with A201W counted along it
Experimental: as §1, §2

[5] = design: method as in PMID 7722695, PMID 18059405; details: feeding rats with OA; cited from earlier work
[6] = Table S2, relative cAMP level, at 500 μM (FA 12:0, 16:1, 18:0, OEA 18:1, OLM 18:1), 450 μM (FA 18:1), 400 μM (FA 16:0), 300 μM (FA 22:0, 18:2), 100 μM (FAME 18:0, FAEE 18:0, lysophospholipids), 3 μM (LTB4)
[7] = cAMP induction, GPR3 stably expressing AD293
[8] = WT iBAT at 4 °C, lipid 1 mM (OA also 5 mM)
[9] = Table S3, WT receptor stable line, OA dose-response

- IC50 (GPR3 [1]): 0.171 µM
Structure (SMILES): CC(C)Oc1cc(Cl)ccc1CNc1cc(-c2ccccc2)nc2ncnn12 [AF64394]

Structure (SMILES): CCCCCCCCCCCCCCCCCCCCCC(=O)O [BEH, behenic acid]
- cAMP induction activity (in words) (GPR3 [2]; GPR3 stably expressing AD293): no activity at all; also recorded: failed to activate the receptor
- maximum response (GPR3 [2]; [6]): 1.0

Structure (SMILES): c1ccc2c(c1)[I+]c1ccccc1-2 [DPI, diphenyleneiodonium chloride]
- Emax compared to Emax of OA (GPR3 [2]): higher Emax

- maximum response (GPR3 [2]; [6]): 0.6
Structure (SMILES): CCCCCCCCCCCCCCCCCC(=O)OCC [ETS, ethyl stearate]
- cAMP induction activity (in words) (GPR3 [2]; GPR3 stably expressing AD293): completely abolished receptor activation; also recorded: failed to activate the receptor

- cAMP induction activity (in words) (GPR3 [2]; GPR3 stably expressing AD293): fully activate GPR3
- maximum response (GPR3 [2]; [6]): 204.5
- Emax compared to Emax of OA (GPR3 [2]): higher Emax than OA
- EC50 (GPR3 [2]; [7]): 320 µM
- GPR6 activation (in words) (GPR6): strongly activated GPR6
Structure (SMILES): CCCCCCCCCCCC(=O)O [LAU, lauric acid]

- maximum response (GPR3 [2]; [6]): 2.9
Structure (SMILES): CCCCC/C=C\C/C=C\CCCCCCCC(=O)O [LIN, Linoleic acid]
- cAMP induction activity (in words) (GPR3 [2]; GPR3 stably expressing AD293): failed to activate the receptor; also recorded: almost no activity
- Gs/cAMP/PKA signaling (phosphorylation of PKA substrates) [3, 8]: neither STE nor LIN induced Gs/cAMP/PKA signaling
- EC50 (GPR120): 57.4 µM

- cAMP induction activity (in words) (GPR3 [2]; GPR3 stably expressing AD293): failed to activate GPR3
- maximum response (GPR3 [2]; [6]): 0.8
Structure (SMILES): CCCCC/C=C\C[C@@H](O)/C=C/C=C/C=C\[C@@H](O)CCCC(=O)O [LTB4, leukotriene B4]

- maximum response (GPR3 [2]; [6]): 0.9
Structure (SMILES): CCCCCCCCCCCCCCCCCC(=O)OC [MES, methyl stearate]
- cAMP induction activity (in words) (GPR3 [2]; GPR3 stably expressing AD293): completely abolished receptor activation; also recorded: failed to activate the receptor

Structure (SMILES): CCCCCCCC/C=C\CCCCCCCC(=O)O [OA, oleic acid]
- EC50 (GPR3 Y280A mutant): 322 µM
- maximum response (GPR3 Y280A mutant): 61.91
- maximum response (GPR3 [2]; [6]): 164.1
- EC50 (GPR3 [2]; [9]): 293 µM
- maximum response (GPR3 [2]; [9]): 186.6
- EC50 (GPR3 [2]; [7]): 299 µM and 300 µM
- Gs/cAMP/PKA signaling (phosphorylation of PKA substrates) [3, 8]: robust increase of Gs/cAMP/PKA signaling; also recorded: substantially increased Gs/cAMP/PKA signaling
- Gs/cAMP/PKA signaling (phosphorylation of PKA substrates) ([3]; WT iBAT at 37 °C, OA 1 mM, 5 mM): to a lesser extent than in the samples treated at 4 °C
- response to OA (in words) (GPR3 W260A mutant): completely lost their response to OA
- GPR12 activation (in words) (GPR12): strongest effect on GPR12 activation
- induction of Gs/cAMP/PKA signaling by OA [4]: completely blocked
- Emax compared to WT receptor (in words) (GPR3 H96A/Y280A mutant): lower Emax than the WT receptor
- EC50 (GPR3 H96A mutant): 255 µM
- maximum response (GPR3 H96A mutant): 83.68
- maximum response (GPR3 L283F mutant): 39.13
- EC50 (GPR3 F120A mutant): 252 µM
- maximum response (GPR3 F120A mutant): 23.67
- EC50 (GPR120): 40.6 µM
- EC50 (GPR3 A201W mutant): 291 µM
- maximum response (GPR3 A201W mutant): 157.9
- thermogenesis and body weight [5]: induces thermogenesis and reduces body weight
